Reference: PMC6304572, “Simultaneous Evaluation of the Influence of Panax ginseng on the Pharmacokinetics of Three Diester Alkaloids after Oral Administration of Aconiti Lateralis Radix in Rats Using UHPLC/QQQ-MS/MS” (Evidence-based Complementary and Alternative Medicine : eCAM, 2018)

Tests used:
[1] = Pharmacokinetics of three diester alkaloids in rat plasma after oral Aconiti Lateralis Radix extract, with or without 7-day P. ginseng pretreatment; type: in vivo, Sprague-Dawley rats; conditions: oral Aconiti Lateralis Radix extract 1 g/kg on 8th day
Method: Rats were randomly divided into 4 groups: control group, P. ginseng (low, middle, and high) group. 7 days of oral administration of P. ginseng extract was administered at a dosage of 0.1, 1, 10 g/kg for P. ginseng group (low, middle, and high), respectively, once daily. Distilled water was administered at a dosage of 2 ml/kg for control group, simultaneously. On the 8th day, Aconiti Lateralis Radix extracts (1 g/kg) were orally administered to all groups. 0.5 ml plasma samples were collected in 1.5 ml centrifuge tubes (containing heparin sodium) at 10, 30, 60, 90, 120, 240, 480, 720, 1440, and 2880 min. All plasma samples were centrifuged for 15 min at 4000g. The supernatant was separated to another 1.5 ml centrifuge tubes and stored at -20°C.
Liquid-liquid extraction (ethyl acetate) and protein precipitation (50% acetonitrile plus 50% methanol) methods were compared to determine the best method to prepare the plasma sample. Liquid-liquid extraction method was chosen, due to reproducibly high recovery rates. The details of the extraction are as follows: 10 μL carbamazepine (IS) was added to 90 μL plasma, spiked with 400 μL ethyl acetate and the mixture vortexed for 15 seconds. After centrifugation at 12,000g for 10 min, the supernatant was transferred to another 1.5 mL centrifuge tube and dried under a stream of nitrogen at 37°C. The residue was redissolved in 100 μL 50% acetonitrile and centrifuged at 12,000g for 10 min and filtered through a 0.22 μm Micropore membrane. A 5 μL volume of supernatant was injected into LC-MS system for analysis.
Xevo TQ-S (Waters, USA) was utilized for the analysis of all biological samples. Chromatographic separation was conducted on Waters ACQUITY UPLC HSS T3 1.8 μm column (2.1 mm × 100 mm). Column temperature was 45°C and the flow rate was 0.5ml/min. Room temperature was 20 ± 2°C. Phase A consisted of water and 0.1% formic acid (v/v), and phase B consisted of acetonitrile (ACN) 0.1% formic acid (v/v). Column separation was performed by gradient elution: 0-0.5 min, 10% B; 1-2 min, 90% B; 4 min, 10% B.
Electrospray ionization (ESI) and positive ion V mode were used to determine the samples. The main parameters for mass spectrum were set as follows: capillary voltage: 3.5 kv; sample cone: 60 v; source offset: 50 v; source temperature: 150°C; desolvation temperature: 350°C; cone gas flow: 150 L/h; desolvation gas flow: 650 L/h; injection volume: 5 μL.
The data was acquired and analyzed by XEVO-QT-S (Waters). The pharmacokinetic parameters were analyzed by DAS pharmacokinetic program (Version 2.0). SAS statistical software was used to determine the difference between each group. All data was presented as mean ± SD, and P<0.05 was considered statistically significant.

[2] = Stability of the three alkaloids in rat plasma QC samples (4°C, room temperature, freeze-thaw); type: in vitro ADME; conditions: for Freeze-thaw Accuracy: freeze-thaw three times; for Room temperature stability (24 h) Accuracy: room temperature (about 25°C)
Method: Plasma from rats without any processing was used to evaluate the detection methods. 0.1, 0.25, 0.5, 1, 2.5, 5, 10 ng/ml were chosen to calculate standards curve. 0.1, 0.4, 4, 8 ng/mL were selected as the QC sample (n = 4) with repeated operations used to calculate accuracy and precision of the detection method. The data was acquired after keeping the samples at either +4°C 24 hours or room temperature (about 25°C) for 24 hours as well as using freeze-thaw methods (three times) to evaluate stability. Recovery of the developed methods was calculated by the following formula: recovery = measured value/ theoretical value × 100%.

[3] = P. ginseng-high (10 g/kg oral, 7 days)
[4] = P. ginseng-low (0.1 g/kg oral, 7 days)
[5] = P. ginseng-middle (1 g/kg oral, 7 days)
[6] = control group (distilled water 7 days)

In the case of COC[C@]12CN(C)[C@@H]3[C@@H]4[C@H](OC)[C@H]1[C@@]3([C@@H](OC)C[C@H]2O)[C@@H]1C[C@@]2(O)[C@H](OC(=O)c3ccccc3)[C@@H]1[C@]4(OC(C)=O)[C@@H](O)[C@@H]2OC [Mesaconitine], the “AUC(0-t)” value [1, 3] is reported as 126.07 ± 44.93^∗∗ μg/L∗h, the “AUC(0-∞)” value [1, 3] is reported as 138.96 ± 55.36^∗∗ μg/L∗h and the CLz/F [1, 3] is reported as 81.37 ± 29.62^∗∗ L/h/Kg. The Cmax [1, 3] was 8.94 ± 2.33^∗ μg/L, the Tmax [1, 3] was 2.20 ± 1.98 h and the Vz/F [1, 3] was 1395.19 ± 472.75^∗∗ L/kg. The t1/2z [1, 3] was 12.56 ± 4.48 h, the “AUC(0-t)” value ([1]; P. ginseng-high (10 g/kg oral, 7 days), listed as mesaconitine) was 126.07 ± 44.93 μg/L∗h and the “AUC(0-t)” value [1, 4] was 65.53 ± 9.06 μg/L∗h. For the same molecule, the “AUC(0-∞)” value [1, 4] was 71.36 ± 12.85 μg/L∗h, the CLz/F [1, 4] was 144.13 ± 26.77 L/h/kg and the Cmax [1, 4] was 4.66 ± 1.03 µg/L. The Tmax [1, 4] was 0.89 ± 0.60 h, the Vz/F [1, 4] was 2386.47 ± 832.39 L/kg and the t1/2z [1, 4] was 12.12 ± 6.11 h. For the same molecule, the “AUC(0-t)” value [1, 5] was 82.45 ± 18.57^∗ μg/L∗h, the “AUC(0-∞)” value [1, 5] was 87.1 ± 21.80^∗ μg/L∗h and the CLz/F [1, 5] was 120.75 ± 29.09^∗ L/h/Kg. For the same molecule, the Cmax [1, 5] was 6.02 ± 1.63 µg/L, the Tmax [1, 5] was 1.83 ± 1.21 h and the Vz/F [1, 5] was 1745.91 ± 488.37^∗ L/kg. The t1/2z [1, 5] was 10.31 ± 3.00 h, the “AUC(0-t)” value ([1]; P. ginseng-middle (1 g/kg oral, 7 days), listed as mesaconitine) was 82.45 ± 18.57 μg/L∗h and the “AUC(0-t)” value [1, 6] was 51.24 ± 21.48 μg/L∗h. For the same molecule, the “AUC(0-∞)” value [1, 6] was 58.66 ± 27.59 μg/L∗h, the CLz/F [1, 6] was 217.47 ± 130.54 L/h/kg and the Cmax [1, 6] was 5.48 ± 2.61 µg/L. For the same molecule, the Tmax [1, 6] was 1.58 ± 1.32 h, the Vz/F [1, 6] was 3146.87 ± 1886.84 L/kg and the t1/2z [1, 6] was 13.17 ± 10.45 h. The “4°C temperature stability (24 h) Accuracy” value (“4°C temperature stability” for short) ([2]; QC conc. 0.40 ng/mL) was 100.28 ± 8.73%, the “Freeze-thaw Accuracy” value ([2]; QC conc. 0.40 ng/mL) was 95.09 ± 7.31% and the “Room temperature stability (24 h) Accuracy” value (from here on “Room temperature stability”) ([2]; QC conc. 0.40 ng/mL) was 96.34 ± 6.95%. For the same molecule, the “4°C temperature stability” value ([2]; QC conc. 4.00 ng/mL) was 97.02 ± 9.18%, the “Freeze-thaw Accuracy” value ([2]; QC conc. 4.00 ng/mL) was 100.37 ± 8.92% and the “Room temperature stability” value ([2]; QC conc. 4.00 ng/mL) was 93.68 ± 2.77%. The “4°C temperature stability” value ([2]; QC conc. 8.00 ng/mL) was 99.43 ± 4.57%, the “Freeze-thaw Accuracy” value ([2]; QC conc. 8.00 ng/mL) was 99.59 ± 3.35% and the “Room temperature stability” value ([2]; QC conc. 8.00 ng/mL) was 100.72 ± 4.78%.
